The results in this text go back to patent US20240010639A1, “TRIAZINE DIONE DERIVATIVE, PREPARATION METHOD THEREFOR AND APPLICATION THEREOF IN MEDICINE” (Jiangsu Hengrui Pharmaceuticals Co., Ltd., priority 2020, published 2024).

The nature of data set [1]: Pharmacokinetic evaluation in beagles. The format is in vivo. Conditions: for AUC / half-life / Cmax / MRT / Vd/F / CL/F: both (Example 16), male (MYK-461), beagle, dog, plasma; for AUC: read-out: Area under curve AUC; for half-life: read-out: Half-life T1/2 (converted); for Cmax: read-out: Plasma concentration Cmax; for MRT: read-out: Residence time MRT; for Vd/F: read-out: Apparent volume of distribution Vz/F; for CL/F: read-out: Clearance CL/F. How it is done:
With beagles as test animals, the plasma concentrations of the test compounds were measured by LC/MS/MS at different time points after intragastric administration and intravenous injection. The pharmacokinetic performance of the compound disclosed herein was studied in beagles and its pharmacokinetic profile was evaluated.
Pharmacokinetics of the compound of Example 16 in beagles: 8 beagles, an equal number of males and females, divided into 2 groups of 4, provided by Shanghai Medicilon Inc. Pharmacokinetics of compound MYK-461 in beagles: 6 beagles, male, divided into 2 groups of 3, provided by Shanghai Medicilon Inc.
A certain amount of the compound of Example 16 was measured out, and 5% DMSO, 30% PG, 30% PEG400 and 35% normal saline were added to prepare a clear solution.
A certain amount of compound MYK-461 was measured out, and 5% DMSO, 20% PG, 20% PEG400 and 55% normal saline were added to prepare a clear solution.
Beagles were fasted overnight and then given compounds by intragastric administration and intravenous injection at doses of 2 mg/kg and 0.5 mg/kg, respectively, and at volumes of 5 mL/kg and 2 mL/kg, respectively.
1.0-mL blood samples were collected from the jugular veins or forelimb veins of the animals in the intragastric administration group before administration and 0.25 h, 0.5 h, 1.0 h, 2.0 h, 4.0 h, 6.0 h, 8.0 h, 12.0 h and 24.0 h after administration, placed into EDTA-K2 anticoagulant tubes, and centrifuged at 10,000 rpm for 5 min (4° C.), and plasma was isolated within 1 h and stored at −80° C. before analysis. The blood collection to centrifugation process was performed under ice bath conditions. Three hours after administration, feeding was resumed.
Blood samples were collected from the animals in the intravenous injection group before administration and 5 min, 0.25 h, 0.5 h, 1.0 h, 2.0 h, 4.0 h, 8.0 h, 12.0 h and 24.0 h after administration and processed as in the intragastric administration group.
Determination of plasma concentrations in beagles after intragastric administration and intravenous injection of different concentrations of test compounds: 30 μL of beagle plasma at each time point post-dose was mixed with an internal standard solution (internal standard for the compound of Example 16: 100 ng/mL warfarin; internal standard for compound MYK-461: 100 ng/mL tolbutamide) and 300 μL of methanol; the mixture was vortexed for 1 min and centrifuged at 18,000 g for 7 min, and 200 μL of the supernatant was transferred to a 96-well plate; 1 μL of the supernatant was taken for LC/MS/MS analysis.

A short description of data set [2]: Identification of reactive metabolites (GSH conjugates) in human liver microsomes. The format is in vitro ADME. Conditions: for Identification of reactive metabolites: Result: human liver microsomes 1 mg/mL, test compound 30 μM, GSH 5 mM, NADPH 1.0 mM, 60 min, 37° C.; for glutathione (GSH) conjugate associated with the compound detected (in words): human liver microsomes, GSH trapping. On the procedure:
The identification of reactive metabolites of the compound disclosed herein in human liver microsomes was carried out using the experimental method below:
• 1. Phosphate-buffered saline (purchased from Shanghai Sangon) • 2. NADPH (ACROS, A2646-71-1) • 3. Human liver microsome (Corning Gentest, Cat No. 452161, Lot No. 905002) • 4. Thermo UHPLC-Q-Exactive Orbitrap mass spectrometer (Thermo Fisher Scientific) • 5. Acquity BEH C18 column, 2.1×100 mm, 1.7 μm (Waters, USA) • 6. Positive control compound (diclofenac).
• 1. Preparation of test compound solutions: A proper amount of a test compound was precisely measured out and dissolved in a proper amount of DMSO. After the solution was well mixed, a 30 mM stock solution was obtained. A […] stock solution was 10-fold diluted with 50% acetonitrile/water (v/v) to obtain a 3.0 mM working solution 1. The 3.0 mM working solution 1 was 10-fold diluted with PBS to obtain a 300 μM working solution 2, and the solution was stored at 4° C. before use. • 2. Preparation of phosphate-buffered saline: Proper amounts of K2HPO4 and KH2PO4 were measured out and dissolved in 4 L of pure water to prepare a 100 mM buffer, and the pH was then adjusted with phosphoric acid or sodium hydroxide to 7.4. • 3. Preparation of liver microsome solutions: Proper amounts of liver microsome stock solutions of various species (20 mg/mL) were measured out and diluted with the 100 mM phosphate-buffered saline (pH 7.4) to prepare 1.43 mg/mL microsome solutions. • 4. Preparation of NADPH cofactor solution: Proper amounts of NADPH and magnesium chloride were measured out and dissolved in a proper amount of the 100 mM phosphate-buffered saline (pH 7.4) so the concentrations of NADPH and magnesium chloride were 10 mM and 30 mM, respectively, and the solutions were stored for later use. • 5. Preparation of glutathione (GSH) solution: A proper amount of glutathione was measured out and dissolved in a proper amount of the 100 mM phosphate-buffered saline (pH 7.4) so the concentration of GSH was 50 mM, and the solution was stored for later use. • 6. The incubation system is shown below:
To a 1.5 mL centrifuge tube, 20 μL of the 300 μM working solution 2 was precisely transferred and 140 μL of a 1.43 mg/mL liver microsome solution was then added so the concentration of liver microsomal protein in the incubation system was 1 mg/mL. […] The collected data were processed and analyzed using Xcalibur software. According to the exact molecular weight, tandem mass spectrometry fragments were analyzed to see if the compound disclosed herein would be metabolically activated to produce reactive metabolites.

The mark [3] stands for this setting: intravenous injection, 0.5 mg/kg.
Where [4] appears, read: po, intragastric administration, 2 mg/kg.

Like-named read-outs stand apart in the source and are kept apart here.

As to `Cc1ccc(F)c([C@H](C)Nc2nc(=O)n(C3CCOCC3)c(=O)[nH]2)c1` [Example 16, (S)-6-((1-(2-Fluoro-5-methylphenyl)ethyl)amino)-3-(tetrahydro-2H-pyran-4-yl)-1,3,5-triazine-2,4(1H,3H)-dione], in data set [1], the “T1/2 comparison (in words)” value is on record as “significantly shorter T1/2” and the “absorption profile (in words)” value is given as “good absorption profile”. In data set [1] (setting [3]), the AUC – broadly, the area under the concentration-time curve, a measure of exposure – is 716 ng·h/mL; the half-life was 5.6 h; the Cmax amounted to 1080 ng/mL; the MRT – broadly, a mean duration of stay, worked out from the concentration-time curve – was determined as 7.5 h. In data set [1] (setting [3]), the “Apparent volume of distribution Vz/F” value came to 5.022 L/kg and the “Clearance CL/F” value was found to be 10.4 mL/min/kg. In addition, in data set [1] (setting [4]), the Vd/F was 6.05 L/kg, the AUC is 3100 ng·h/mL, the CL/F worked out at 9.26 mL/min/kg and the half-life was 7.5 h. Besides, in data set [1] (setting [4]), the Cmax is 1540 ng/mL and the MRT was found to be 9.5 h. Moreover, in data set [2], the “Identification of reactive metabolites: Result” value was “Negative” and the “glutathione (GSH) conjugate associated with the compound detected (in words)” value was “no glutathione (GSH) conjugate”.

Take `CC(C)n1c(=O)cc(N[C@@H](C)c2ccccc2)[nH]c1=O` [MYK-461, reference compound]: the “T1/2 comparison (in words)” value in data set [1] is recorded as “longer T1/2”. Further, in data set [1] (setting [3]), the AUC stood at 1380 ng·h/mL, the half-life is 47.2 h, the Cmax is 215 ng/mL and the MRT was 72.2 h. In addition, in data set [1] (setting [3]), the “Apparent volume of distribution Vz/F” value is 6.308 L/kg and the “Clearance CL/F” value came to 1.63 mL/min/kg. Moreover, in data set [1] (setting [4]), the Vd/F worked out at 3.9 L/kg, the AUC came to 8720 ng·h/mL, the CL/F is 1.48 mL/min/kg and the half-life was 38.9 h. Moreover, in data set [1] (setting [4]), the Cmax came out at 1440 ng/mL and the MRT is 59.2 h. Moreover, in data set [2], the “Identification of reactive metabolites: Result” value is listed as “Positive” and the “glutathione (GSH) conjugate associated with the compound detected (in words)” value is given as “detected”.
